Experimental data as given in US20250188110A1, “SPECIFIC SMALL MOLECULE INHIBITORS THAT BLOCK KMT9 METHYLTRANSFERASE ACTIVITY AND FUNCTION” (ALBERT-LUDWIGS-UNIVERSITÄT FREIBURG, priority 2021, published 2025).

Assays:
[1] = target: T1, KMT9 (Homo sapiens, UniProt Q9Y5N5); assay: Microscale thermophoresis (MST) KMT9 binding; conditions: microscale thermophoresis, His-tag labelled KMT9 (20 nM); read-out: MST
T1 sequence (Q9Y5N5 1-214): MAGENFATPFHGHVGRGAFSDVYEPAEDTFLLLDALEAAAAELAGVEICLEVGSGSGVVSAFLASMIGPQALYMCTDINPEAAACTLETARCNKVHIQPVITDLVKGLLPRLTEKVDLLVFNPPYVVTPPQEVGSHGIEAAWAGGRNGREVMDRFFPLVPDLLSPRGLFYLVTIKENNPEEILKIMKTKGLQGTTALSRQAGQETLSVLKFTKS
T1 sequence (Q9UI30 1-120 isoform Q9UI30-2 partner): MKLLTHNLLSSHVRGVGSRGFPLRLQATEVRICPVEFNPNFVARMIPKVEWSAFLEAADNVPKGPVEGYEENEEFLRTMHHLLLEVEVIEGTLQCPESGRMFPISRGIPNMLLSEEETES
Protocol: To determine the binding affinity of the compounds according to the present invention and KMT9, microscale thermophoresis (MST) analysis was performed with a NanoTemper Monolith NT.115 instrument (NanoTemper Technologies GmbH). KMT9 was labelled with a RED-Tris-NTA labelling kit (NanoTemper Technologies GmbH) based on the manufacturer's instructions. Buffer including 25 mM HEPES (pH 7.5), 100 mM NaCl, 1 mM DTT and 0.05% Tween was used for the reaction buffer. Varying concentrations of the tested compounds of formula (I) as indicated in Table 1 were titrated against His-tag labelled KMT9 proteins (20 nM). Samples were loaded into standard Capillaries (NanoTemper Technologies GmbH) and MST measurements were performed using 40% MST power and 100% LED power. For each set of binding experiments, MST measurement was carried out with Binding Affinity module in MO.Control program under Nano-RED Excitation. Datasets were processed with the MO.Affinity Analysis software (NanoTemper Technologies GmbH).
For the results of the microscale thermophoresis (MST) assay shown as “MST” in Table 1, “A” represents a Kd of equal to or less than 10 nM (Kd≤10 nM); “B” represents a Kd of greater than 10 nM and equal to or less than 100 nM (10 nM<Kd<100 nM); “C” represents a Kd of greater than 100 nM and equal to or less than 1000 nM (100 nM<Kd ≤ 1000 nM); “D” represents a Kd of greater than 1000 nM (1000 nM<Kd).

[2] = target: T1, KMT9; assay: KMT9 thermal shift assay (SyproOrange); assay type: binding; conditions: ΔTm; 500 µM compound, 2 μM KMT9, 5X SO; read-out: Thermal shift
Protocol: The assay was carried out in 96-well Hard-Shell PCR plates (Bio-Rad Laboratories Inc.). Assay buffer consisted of 50 mM BTP, 1 mM MgCl2 and 1 mM DTT at a pH of 8.5 (adjusted using 1 M HCl and 1 M NaOH). 20X inhibitor stock (in DMSO), 2X enzyme stock and 4X SyproOrange (SO) stock (both in assay buffer) were prepared. 1 μL of 20X compound, 4 μL of assay buffer, 10 μL of 2X KMT9 and 5 μL of 4X SO were pipetted. For the no-compound control, 20X inhibitor stock was replaced by DMSO. The final volume was 20 μL. The plate was spun down at 700 rpm for 1 min using a Hettich UNIVERSAL 320 centrifuge and incubated at 25° C., shaking at 600 rpm. After incubation, the plate was spun down for 1 min at 700 rpm and measurement was conducted using a CFX96 Touch Real-Time PCR Detection System (Bio-Rad Laboratories Inc.). The plate was equilibrated at 20° C. for 4 min and then heated stepwise at a rate of 1° C. per 15 s until 95° C. After every step, fluorescence was measured in FRET mode. Calculation of melting points was conducted by a Boltzman sigmoidal model using GraphPad Prism 7.0.
For the results of the thermal shift assay shown as “Thermal shift” in Table 1, “++++” represents a ΔTm of greater 20 K, “+++” represents a ΔTm of greater than 15 K and less than or equal to 20 K (15 K<ΔTm≤20 K); “++” represents a ΔTm of greater than 10 K and less than or equal to 15 K (10 K<ΔTm ≤ 15 K); “+” represents a ΔTm of equal to or less than 10 K (ΔTm≤10 K).

[3] = target: T1, KMT9; assay: KMT9 methyltransferase inhibition assay, 3H-SAM scintillation (entries 1-154); assay type: biochemical; conditions: entries 1-154: 3H-SAM assay, 25 nM KMT9, 5 μM ETF1
Protocol: The assay was carried out in 0.5 mL Eppendorf tubes in duplicates. Assay buffer consisted of 50 mM BTP, 1 mM MgCl2, 1 mM DTT and 0.01% Triton-X^100 at a pH of 8.5 (adjusted using 1 M HCl and 1 M NaOH). 20X inhibitor stock (in DMSO), 2X enzyme stock and 4X substrate mix (both in assay buffer) were prepared. The substrate mix consisted of Tritium-labelled S-adenosylmethionine (3H-SAM), S-adenosylmethionine (SAM) and eukaryotic peptide chain release factor subunit1 (Homo sapiens, residues 140-275)(ETF1). Final assay concentrations were set to 25 nM KMT9, 0.3 μM 3H-SAM, 0.7 µM SAM and 5 μM ETF1. […] 5 μL of 4x substrate mix was added to initiate the reaction. The final reaction volume was 20 μL. For the positive control, the compound of formula (I) was replaced by DMSO; for the negative control, the compound of formula (I) was replaced by DMSO and KMT9 was replaced by assay buffer. The reaction mix was incubated in an Eppendorf thermomixer comfort at 30° C. for 2 h, shaking at 300 rpm. The reaction was quenched using 5 μL 50% trichloroacetic acid (TCA) and incubated at 25° C. for 5 minutes. 22 μL of the mixture was transferred into 96-well MultiScreen@HTS FB filter plates (Merck KGaA, Darmstadt, Germany) and washed four times with 10% TCA and two times with 100% ethanol. The plate was dried overnight, the filters were transferred into individual 6 mL Pony Vials (Perkin Elmer Inc, Waltham, MA, USA) and incubated in 3 mL of Ultima Gold scintillation cocktail (Perkin Elmer Inc, Waltham, MA, USA) for 30 minutes. The scintillation signal was measured for 3x 1 min using TriCarb 2910 TR (Perkin Elmer) scintillation counter in 3H CPM mode (LL: 0, UL: 18.6). Inhibition was calculated using the following formula: […]
With xc: signal of compound, Xpos: mean signal of positive control, Xneg: mean signal of negative control. Data fitting was carried out by GraphPad 7.0 using nonlinear fit ([Inhibitor]vs. response-variable slope (four parameters)).
For the results of the methyltransferase inhibition assay shown as “Inhibition” in Table 1, “I” represents an IC50 less than 0.1 μM, “II” represents an IC50 equal or higher than 0.1 μM and less than 1 μM, “III” represents an IC50 equal or higher than 1 µM and less than 10 µM and “IV” represents an IC50 equal or higher than 10 µM

SMILES	Kd [1] [µM]	ΔTm at 500 µM [2] [°C]	IC50 [3] [µM]
Nc1ncnc2c1ncn2[C@@H]1O[C@H](CNCCCNCc2ccc(OCc3ccccc3)cc2)[C@@H](O)[C@H]1O [321 (224), (2R,3R,4S,5R)-2-(6-amino-9H-purin-9-yl)-5-(((3-((4-(benzyloxy)benzyl)amino)propyl)amino)methyl)tetrahydrofuran-3 4-diol]	0.1 to 1	≤ 10	> 10
Nc1ncnc2c1ncn2[C@@H]1O[C@H](CNCCCNCc2ccc3ccccc3c2)[C@@H](O)[C@H]1O [323 (226), (2R,3R,45,5R)-2-(6-amino-9H-purin-9-yl)-5-(((3-((naphthalen-2-ylmethyl)amino)propyl)amino)methyl)tetrahydrofuran-3,4-diol]	> 1	≤ 10	> 10
Nc1ncnc2c1ncn2[C@@H]1O[C@H](C(=O)NC2CCN(CCc3ccccc3)CC2)[C@@H](O)[C@H]1O [325 (228), (2S,3S,4R,5R)-5-(6-amino-9H-purin-9-yl)-3,4-dihydroxy-N-(1-phenethylpiperidin-4-yl) tetrahydrofuran-2-carboxamide]	> 1	≤ 10	> 10
CNc1ncnc2c1ccn2[C@@H]1C[C@H](Cn2ccnc2CCCNCCc2cccc(Oc3ccccc3)c2)[C@@H](O)[C@H]1O [326 (229), (1R,2S,3R,5R)-3-(4-(methylamino)-7H-pyrrolo[2,3-d]pyrimidin-7-yl)-5-((2-(3-((3-phenoxyphenethyl)amino)propyl)-1H-imidazol-1-yl)methyl) cyclopentane-1,2-diol]	> 1	≤ 10	> 10
CNc1ncnc2c1ccn2[C@@H]1C[C@H](CNCCCNCc2ccc(OCc3ccccc3)cc2)[C@@H](O)[C@H]1O [328 (232), (1S,2R,3R,5R)-3-(((3-((4-(benzyloxy)benzyl)amino)propyl)amino)methyl)-5-(4-(methylamino)-7H-pyrrolo[2,3-d]pyrimidin-7-yl) cyclopentane-1,2-diol]	> 1	≤ 10	> 10
CNc1ncnc2c1ccn2[C@@H]1C[C@H](CN(CCCNCCc2ccccc2)CC(F)(F)F)[C@@H](O)[C@H]1O [330 (234), (1R,2S,3R,5R)-3-(4-(methylamino)-7H-pyrrolo[2,3-d]pyrimidin-7-yl)-5-(((3-(phenethylamino)propyl)(2,2,2-trifluoroethyl)amino)methyl) cyclopentane-1,2-diol]	0.1 to 1	≤ 10	> 10
CNc1ncnc2c1ccn2[C@@H]1C[C@H](CNCCCNCc2ccc(Oc3ccccc3)cc2)[C@@H](O)[C@H]1O [332 (236), (1R,2S,3R,5R)-3-(4-(methylamino)-7H-pyrrolo[2,3-d]pyrimidin-7-yl)-5-(((3-((4-phenoxybenzyl)amino)propyl)amino)methyl) cyclopentane-1,2-diol]	> 1	≤ 10	> 10
Nc1ncnc2c1c(Br)cn2[C@@H]1C[C@H](CNCCCNCCc2ccc(F)cc2F)[C@@H](O)[C@H]1O [334 (238), (1R,2S,3R,5R)-3-(4-amino-5-bromo-7H-pyrrolo[2,3-d]pyrimidin-7-yl)-5-(((3-((2,4-difluorophenethyl)amino)propyl)amino)methyl) cyclopentane-1,2-diol]	0.01 to 0.1	15 to 20	0.1 to 1
Nc1ncnc2c1c(Br)cn2[C@@H]1C[C@H](CNCCCNCCc2ccc(C(F)(F)F)cc2)[C@@H](O)[C@H]1O [336 (240), (1R,2S,3R,5R)-3-(4-amino-5-bromo-7H-pyrrolo[2,3-d]pyrimidin-7-yl)-5-(((3-((4-(trifluoromethyl)phenethyl)amino)propyl)amino)methyl) cyclopentane-1,2-diol]	0.1 to 1	15 to 20	0.1 to 1
Nc1ncnc2c1c(Br)cn2[C@@H]1C[C@H](CNCCCNCCc2ccccc2F)[C@@H](O)[C@H]1O [338 (242), (1R,2S,3R,5R)-3-(4-amino-5-bromo-7H-pyrrolo[2,3-d]pyrimidin-7-yl)-5-(((3-((2-fluorophenethyl)amino)propyl)amino)methyl) cyclopentane-1,2-diol]	0.01 to 0.1	15 to 20	0.1 to 1
Nc1ncnc2c1c(I)cn2[C@@H]1C[C@H](CNCCCNCCc2ccccc2)[C@@H](O)[C@H]1O [343 (246)]	0.1 to 1	15 to 20	0.1 to 1
Nc1ncnc2c1c(Br)cn2[C@@H]1C[C@H](CNCCCNCc2ccc(F)cc2)[C@@H](O)[C@H]1O [344 (248), (1R,2s,3R,5R)-3-(4-amino-5-bromo-7H-pyrrolo[2,3-d]pyrimidin-7-yl)-5-(((3-((4-fluorobenzyl)amino)propyl)amino)methyl) cyclopentane-1,2-diol]	0.1 to 1	15 to 20	0.1 to 1
CNc1ncnc2c1ccn2[C@@H]1C[C@H](C(=O)NCC2CCNCC2)[C@@H](O)[C@H]1O [346 (250), (1S,2R,3S,4R)-2,3-dihydroxy-4-(4-(methylamino)-7H-pyrrolo[2,3-d]pyrimidin-7-yl)-N-(piperidin-4-ylmethyl) cyclopentane-1-carboxamide]	> 1	≤ 10	> 10
CNc1ncnc2c1ccn2[C@@H]1C[C@H](C(=O)NCC2CCCNC2)[C@@H](O)[C@H]1O (stereo partly drawn) [348 (252), (1S,2R,3S,4R)-2,3-dihydroxy-4-(4-(methylamino)-7H-pyrrolo[2,3-d]pyrimidin-7-yl)-N-(piperidin-3-ylmethyl) cyclopentane-1-carboxamide]	> 1	≤ 10	> 10
